# Experiments:
# Conditions in all cases: 72 h
# THP-1 [1] = assay: cell viability (% survival relative to DMSO control, bortezomib = 0%); higher = less cytotoxic
# How it was run: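 Fifteen myeloid leukaemia cell lines (10 AML, 5 CML) were seeded at a density titrated to the linear growth range. They went into 384-well plates with compounds pre-printed at 1, 10, 100, 1000 or 10000 nM in duplicate. After 72 h at 37 °C with 5% CO2, viability was read by CellTiter-Glo luminescence. Values are percent survival, with vehicle set to 100% and a 10 µM positive control to 0%, averaged over the duplicates.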
# LAMA-84 = tested on: LAMA-84
# How it was run: (§1)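 In 384-well plates holding acoustically pre-printed compounds at five tenfold doses from 1 to 10,000 nM, in duplicate, fifteen myeloid leukaemia cell lines were grown in RPMI 1640 for 72 h at 37 °C with 5% CO2. Luminescent ATP viability was scaled between vehicle and a positive control at 10 µM. The IC50 was then taken from log-logistic dose–response fits with four parameters.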
# KCL-22 = tested on: KCL-22
# How it was run: as §1
# THP-1 [2] = tested on: THP-1
# How it was run: as §1
# NOMO-1 = tested on: NOMO-1
# How it was run: as §1
# KG-1 = tested on: KG-1
# How it was run: as §1
# ML-2 = tested on: ML-2
# How it was run: as §1
# HEL = tested on: HEL
# How it was run: as §1
# MV4-11 = tested on: MV4-11
# How it was run: as §1
# MOLM-13 = tested on: MOLM-13
# How it was run: as §1
# K-562 = tested on: K-562
# How it was run: as §1
# SHI-1 = tested on: SHI-1
# How it was run: as §1
# BV-173 = tested on: BV-173
# How it was run: as §1
# Mono-Mac-6 = tested on: Mono-Mac-6
# How it was run: as §1
# HL-60 = tested on: HL-60
# How it was run: as §1
# KU-812 = tested on: KU-812
# How it was run: as §1
SMILES,cell viability (THP-1 [1]; 1 nM) [%],cell viability (THP-1 [1]; 10 nM) [%],cell viability (THP-1 [1]; 100 nM) [%],cell viability (THP-1 [1]; 1000 nM) [%],cell viability (THP-1 [1]; 10000 nM) [%],IC50 (cell viability) (LAMA-84) [nM],IC50 (cell viability) (KCL-22) [nM],IC50 (cell viability) (THP-1 [2]) [nM],IC50 (cell viability) (NOMO-1) [nM],IC50 (cell viability) (KG-1) [nM],IC50 (cell viability) (ML-2) [nM],IC50 (cell viability) (HEL) [nM],IC50 (cell viability) (MV4-11) [nM],IC50 (cell viability) (MOLM-13) [nM],IC50 (cell viability) (K-562) [nM],IC50 (cell viability) (SHI-1) [nM],IC50 (cell viability) (BV-173) [nM],IC50 (cell viability) (Mono-Mac-6) [nM],IC50 (cell viability) (HL-60) [nM],IC50 (cell viability) (KU-812) [nM]
O=C(O)CC[C@H](NC(=O)c1ccc([N+](=O)[O-])cc1)C(=O)O [(S)-2-(4-Nitrobenzamido)pentanedioic acid],102,107,93.7,105,95.5,> 10000,> 10000,> 10000,> 10000,> 10000,> 10000,> 10000,> 10000,> 10000,> 10000,> 10000,> 10000,> 10000,> 10000,> 10000
NC(=O)c1ncn([C@@H]2O[C@H](CO)[C@@H](O)[C@H]2O)n1 [Ribavirin],96.5,103,107,107,112,> 10000,> 10000,> 10000,> 10000,> 10000,> 10000,> 10000,> 10000,> 10000,> 10000,> 10000,> 10000,> 10000,> 10000,> 10000
CCN(CC)CCN(Cc1ccc(-c2ccc(C(F)(F)F)cc2)cc1)C(=O)Cn1c(SCc2ccc(F)cc2)nc(=O)c2c1CCC2 [Darapladib],107,98.8,100,96.3,-0.44,2230,2320,2940,2820,2420,2620,2630,3360,2150,1640,2590,2150,2900,2070,1980
Oc1cc(Cl)ccc1Oc1ccc(Cl)cc1Cl [Triclosan],92.7,98.5,103,108,92,> 10000,> 10000,> 10000,> 10000,> 10000,> 10000,> 10000,> 10000,> 10000,> 10000,> 10000,> 10000,> 10000,> 10000,> 10000
CC12CCC(O)CC1CCC1C2CCC2(C)C(C3=CC(=O)OC3)CCC12O (stereo not given) [Digitoxigenin],108,104,77,18.9,-0.987,234,331,286,437,264,350,336,323,122,184,358,240,213,338,368
